In US20030186890A1, “Amphipathic linear peptides and formulations containing said peptides” (SYNT:EM S.A., priority 2000, published 2003):
Where “and” joins values, the source holds several entries; their conditions need not be identical. Equal entries are not always repeated.

Assays:
[1] = mouse, in vivo
Source text: This is a rapid and sensitive method to evaluate the penetration of various compounds in the central nervous system. Young mice (25-30 g, Iffa-Credo; l'Arbresle, France) were anaesthetised. After exposure of the common carotid, the right external carotid artery was tied at the bifurcation with the internal carotid and the common carotid was tied between the heart and the catheter implantation site (polyethylene catheter, ID: 0.76). The catheter previously filled with a heparin solution (100 units/ml) was inserted into the common carotid. The mice were infused with the infusion buffer (128 mM NaCl, 24 mM NaHCO3, 4.2 mM KCl, 2.4 mM NaH2PO4, 1.5 mM CaCl2, 0.9 mM MgSO4 and 9 mM D-glucose). The buffer was filtered and then bubbled with a mixture containing 95% O2/5% CO2 to maintain the pH close to 7.4 and supply the brain with oxygen during the infusion.
In each product, the doxorubicin was radiolabelled with carbon 14 (specific activity: 9.4 μCi/mg, Amersham, France) . The products were infused at a concentration of 0.33 μCi/ml or 0.035 mg/mouse.
Just before the start of infusion, the heart was stopped by ventricular section to prevent infusate reflux during infusion. The right hemisphere was then infused at a rate of 10 ml/min for 60 seconds, after which the mouse was decapitated. […]

K562 cells = experiment: Cell penetration of NBD-labelled peptides by flow cytometry (FACS); assay type: cell-based; conditions: for penetration (mean fluorescent intensity): NBD-labelled peptide 1 μM, 37° C.; for penetration relative to that of SynB1: at 60 min; for penetration compared with the reference peptide (in words): irrespective of the time interval
Protocol: Cell penetration of the peptides was studied by flow cytometry. The K562 cells were cultured in RPMI medium with 10% foetal calf serum. The cells were diluted to 0.3×10^6 cells per ml 24 hours before the experiment. The cell penetration was measured by flow cytometry using a FACScan (Becton Dickinson, USA). The peptides labelled with NBD (final concentration 1 μM) were incubated with the K562 cells (5×10^5 cells per ml) in Optimem medium at 37° C. for variable periods (the final volume was 0.5 ml). After incubation, the cells were washed twice and then resuspended in 0.5 ml of cold PBS. The penetration was then analysed by FACS. The fluorophors were excited at 488 nm and the fluorescence measured at 525 nm. A histogram of the fluorescent intensity (for 1×10^4 cells) was obtained and the mean distribution considered to be representative of the quantity of peptide associated with the cells.

## Doxo-(RGGRLSYSCitCitCitFSTSTGR) [Doxo-SynB1/3Cit]
[1]
  increase of passage into the brain (influx constant Kin) versus doxorubicin alone: 20 times

## R G G R L A Y L R R R W A V L V G R (RGGRLAYLRRRWAVLVGR) [SM3979]
K562 cells; Time 0 min
  penetration (mean fluorescent intensity): 4
K562 cells; Time 5 min
  penetration (mean fluorescent intensity): 75
K562 cells; Time 10 min
  penetration (mean fluorescent intensity): 95
K562 cells; Time 30 min
  penetration (mean fluorescent intensity): 100
K562 cells; Time 60 min
  penetration (mean fluorescent intensity): 114
K562 cells
  penetration relative to that of SynB1: 9 times
  penetration compared with the reference peptide (in words): penetrate much more effectively

## R G G R L S Y S R R R F S T S T G R (RGGRLSYSRRRFSTSTGR) [SynB1, reference compound]
K562 cells; Time 0 min
  penetration (mean fluorescent intensity): 4
K562 cells; Time 5 min
  penetration (mean fluorescent intensity): 7
K562 cells; Time 10 min
  penetration (mean fluorescent intensity): 7
K562 cells; Time 30 min
  penetration (mean fluorescent intensity): 8
K562 cells; Time 60 min
  penetration (mean fluorescent intensity): 12

## R G G R L V Y V R R R W V V V V G R (RGGRLVYVRRRWVVVVGR) [SM3980]
K562 cells; Time 0 min
  penetration (mean fluorescent intensity): 4
K562 cells; Time 5 min
  penetration (mean fluorescent intensity): 34
K562 cells; Time 10 min
  penetration (mean fluorescent intensity): 42
K562 cells; Time 30 min
  penetration (mean fluorescent intensity): 54
K562 cells; Time 60 min
  penetration (mean fluorescent intensity): 62
K562 cells
  penetration relative to that of SynB1: 5 times
  penetration compared with the reference peptide (in words): penetrate much more effectively

## R L R W R L R L R F (RLRWRLRLRF) [SM4292]
K562 cells; Time 0 min
  penetration (mean fluorescent intensity): 4.5
K562 cells; Time 5 min
  penetration (mean fluorescent intensity): 140
K562 cells; Time 10 min
  penetration (mean fluorescent intensity): 140
K562 cells; Time 30 min
  penetration (mean fluorescent intensity): 141
K562 cells; Time 60 min
  penetration (mean fluorescent intensity): 146

## R L R W R L R Y R F (RLRWRLRYRF) [SM4291]
K562 cells; Time 0 min
  penetration (mean fluorescent intensity): 4.5
K562 cells; Time 5 min
  penetration (mean fluorescent intensity): 91
K562 cells; Time 10 min
  penetration (mean fluorescent intensity): 99
K562 cells; Time 30 min
  penetration (mean fluorescent intensity): 107
K562 cells; Time 60 min
  penetration (mean fluorescent intensity): 118

## R R L S Y S R R R F (RRLSYSRRRF) [SynB3, reference compound]
K562 cells; Time 0 min
  penetration (mean fluorescent intensity): 4 and 4.5
K562 cells; Time 5 min
  penetration (mean fluorescent intensity): 9.5 and 12
K562 cells; Time 10 min
  penetration (mean fluorescent intensity): 10 and 13
K562 cells; Time 30 min
  penetration (mean fluorescent intensity): 12 and 15
K562 cells; Time 60 min
  penetration (mean fluorescent intensity): 16 and 23

## R R L W L L R R R F (RRLWLLRRRF) [SM4288]
K562 cells; Time 0 min
  penetration (mean fluorescent intensity): 4
K562 cells; Time 5 min
  penetration (mean fluorescent intensity): 33
K562 cells; Time 10 min
  penetration (mean fluorescent intensity): 38
K562 cells; Time 30 min
  penetration (mean fluorescent intensity): 53
K562 cells; Time 60 min
  penetration (mean fluorescent intensity): 61

## R R L W R L L R R F (RRLWRLLRRF) [SM4290]
K562 cells; Time 0 min
  penetration (mean fluorescent intensity): 4
K562 cells; Time 5 min
  penetration (mean fluorescent intensity): 147
K562 cells; Time 10 min
  penetration (mean fluorescent intensity): 168
K562 cells; Time 30 min
  penetration (mean fluorescent intensity): 366
K562 cells; Time 60 min
  penetration (mean fluorescent intensity): 371

## R R L W R L Y R R F (RRLWRLYRRF) [SM4289]
K562 cells; Time 0 min
  penetration (mean fluorescent intensity): 4
K562 cells; Time 5 min
  penetration (mean fluorescent intensity): 63
K562 cells; Time 10 min
  penetration (mean fluorescent intensity): 80
K562 cells; Time 30 min
  penetration (mean fluorescent intensity): 107
K562 cells; Time 60 min
  penetration (mean fluorescent intensity): 135

## R R L W Y L R R R F (RRLWYLRRRF) [SM4287]
K562 cells; Time 0 min
  penetration (mean fluorescent intensity): 4
K562 cells; Time 5 min
  penetration (mean fluorescent intensity): 29
K562 cells; Time 10 min
  penetration (mean fluorescent intensity): 34
K562 cells; Time 30 min
  penetration (mean fluorescent intensity): 50
K562 cells; Time 60 min
  penetration (mean fluorescent intensity): 60

## RKLWYLRKRF [SM4293]
K562 cells; Time 0 min
  penetration (mean fluorescent intensity): 4.5
K562 cells; Time 5 min
  penetration (mean fluorescent intensity): 20
K562 cells; Time 10 min
  penetration (mean fluorescent intensity): 23
K562 cells; Time 30 min
  penetration (mean fluorescent intensity): 29
K562 cells; Time 60 min
  penetration (mean fluorescent intensity): 31
